Data: patent US8299077B2 (Roche Palo Alto LLC, priority 2009, dated 2012)

System: B cell receptor-mediated activation of B cells in human blood (CD69 expression)
Experiment: Inhibition of B cell activation in whole blood measured by CD69 expression
Format: cell-based
Conditions: anti-IgM stimulation, 20 h, 50% decrease of CD69-positive cells that are also CD20-positive
Method in brief: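 Healthy-donor human whole blood (heparin) preincubated with compound (nine-point, three-fold dilutions) for 30 min at 37 °C, then stimulated with goat F(ab′)2 anti-human IgM (50 μg/ml final) for 20 h. CD69-positive B cells (CD20 gating) measured by flow cytometry as percent positive; IC50 from dose-response fit.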

Row | SMILES | IC50
1 | Cn1cc(-c2cccc(-n3ccc4cc(C5(C)CC5)cc(F)c4c3=O)c2CO)cc(Nc2ccc(C(=O)N3CCOCC3)cn2)c1=O [Example I-60, 8-Fluoro-2-(2-hydroxymethyl-3-{1-methyl-5-[5-(morpholine-4-carbonyl)-pyridin-2-ylamino]-6-oxo-1,6-dihydro-pyridin-3-yl}-phenyl)-6-(1-methyl-cyclopropyl)-2H-isoquinolin-1-one] | 16 nM
2 | Cn1cc(-c2cccc(-n3ccc4cc(C(C)(C)C#N)cc(F)c4c3=O)c2CO)cc(Nc2ccc(OCCO)cn2)c1=O [Example I-65, 2-[8-Fluoro-2-(3-{5-[5-(2-hydroxy-ethoxy)-pyridin-2-ylamino]-1-methyl-6-oxo-1,6-dihydro-pyridin-3-yl}-2-hydroxymethyl-phenyl)-1-oxo-1,2-dihydro-isoquinolin-6-yl]-2-methyl-propionitrile] | 19 nM
3 | Cn1cc(-c2cccc(-n3ccc4cc(C(C)(C)O)cc(F)c4c3=O)c2CO)nc(Nc2cnn(CC(F)F)c2)c1=O [Example I-80, 2-(3-{6-[1-(2,2-Difluoro-ethyl)-1H-pyrazol-4-ylamino]-4-methyl-5-oxo-4,5-dihydro-pyrazin-2-yl}-2-hydroxymethyl-phenyl)-8-fluoro-6-(1-hydroxy-1-methyl-ethyl)-2H-isoquinolin-1-one] | 31 nM
4 | Cn1cc(-c2cccc(-n3ccc4cc(C5CC5)cc(F)c4c3=O)c2CO)cc(Nc2ccc(C(=O)N3CCOCC3)cn2)c1=O [Example I-51, 6-Cyclopropyl-8-fluoro-2-(2-hydroxymethyl-3-{1-methyl-5-[5-(morpholine-4-carbonyl)-pyridin-2-ylamino]-6-oxo-1,6-dihydro-pyridin-3-yl}-phenyl)-2H-isoquinolin-1-one] | 23 nM
5 | Cn1cc(-c2cccc(-n3ncc4cc(C(C)(C)C)cc(F)c4c3=O)c2CO)cc(Nc2ccc(C(C)(C)C(=O)N3CCOCC3)cn2)c1=O [Example I-21, 6-tert-Butyl-2-(3-{5-[5-(1,1-dimethyl-2-morpholin-4-yl-2-oxo-ethyl)-pyridin-2-ylamino]-1-methyl-6-oxo-1,6-dihydro-pyridin-3-yl}-2-hydroxymethyl-phenyl)-8-fluoro-2H-phthalazin-1-one] | 11 nM
6 | CC(C)n1ccc(Nc2cc(-c3cccc(-n4ncc5cc(C(C)(C)C)cc(F)c5c4=O)c3CO)cn(C)c2=O)nc1=O [Example I-38, 6-tert-Butyl-8-fluoro-2-{2-hydroxymethyl-3-[5-(1-isopropyl-2-oxo-1,2-dihydro-pyrimidin-4-ylamino)-1-methyl-6-oxo-1,6-dihydro-pyridin-3-yl]-phenyl}-2H-phthalazin-1-one] | 67 nM

Continued by falling IC50, values first:

Row | IC50 | SMILES
7 | 392 nM | Cn1ccc(Nc2cc(-c3cccc(-n4ncc5cc(C(C)(C)C)cc(F)c5c4=O)c3CO)cn(C)c2=O)nc1=O [Example I-23, 6-tert-Butyl-8-fluoro-2-{2-hydroxymethyl-3-[1-methyl-5-(1-methyl-2-oxo-1,2-dihydro-pyrimidin-4-ylamino)-6-oxo-1,6-dihydro-pyridin-3-yl]-phenyl}-2H-phthalazin-1-one]
8 | 57 nM | CC(O)Cn1cc(Nc2nc(-c3cccc(-n4ccc5cc(C6CC6)cc(F)c5c4=O)c3CO)cn(C)c2=O)cn1 (stereo not drawn) [Example I-82, 6-Cyclopropyl-8-fluoro-2-(2-hydroxymethyl-3-{6-[1-(2-hydroxy-propyl)-1H-pyrazol-4-ylamino]-4-methyl-5-oxo-4,5-dihydro-pyrazin-2-yl}-phenyl)-2H-isoquinolin-1-one]
9 | 24 nM | CN1CCN(Cc2ccc(Nc3cc(-c4cccc(-n5ccc6cc(C7CC7)cc(F)c6c5=O)c4CO)cn(C)c3=O)nc2)CC1 [Example I-73, 6-Cyclopropyl-8-fluoro-2-(2-hydroxymethyl-3-{1-methyl-5-[5-(4-methyl-piperazin-1-ylmethyl)-pyridin-2-ylamino]-6-oxo-1,6-dihydro-pyridin-3-yl}-phenyl)-2H-isoquinolin-1-one]
